# Several values for one entry are separate records, joined by “and”; a condition that tells them apart may be missing. Equal values may be shown once. Read-outs that look alike come from different tables or passages of the source.
# Key:
# [1] = molecular target: AT-III (Homo sapiens, UniProt P01008); experiment: BLI binding assay, sugars immobilized, protein as analyte
# Procedure: (§1) We evaluated the binding affinity of native HS and synthetic HS glycomimetics (M1, D1, D2, D3, and T1) to these proteins using biolayer interferometry (BLI). The terminal amino groups of the sugars were immobilized onto the sensor surface using standard amine coupling chemistry, and binding assays were performed by introducing the proteins as analytes at varying concentrations (Figure A). The equilibrium dissociation constants (K D) were determined using the steady-state affinity curve fitting.
# [2] = molecular target: T1, FGF-1 (Homo sapiens, UniProt P05230); experiment: as above; conditions: steady-state affinity curve fitting
# Procedure: as §1
# [3] = molecular target: T2, FGF-2 (Homo sapiens, UniProt P09038); experiment: as above; conditions: steady-state affinity curve fitting
# Procedure: as §1
# [4] = molecular target: NGF (Homo sapiens, UniProt P01138); experiment: as above; conditions: steady-state affinity curve fitting
# Procedure: as §1
# [5] = molecular target: T2, FGF-2; experiment: BLI competition assay with immobilized native HS for FGF-2 binding
# Excerpt: We next examined the functional relevance of the synthetic HS glycomimetics by testing their ability to compete with native HS for FGF-2 binding using competition assays. Although direct binding assays measure the intrinsic affinity of HS glycomimetics for FGF-2, they are limited in representing the complex, multimolecular environment of biological systems. In vivo, FGF-2 activity is tightly regulated by its interactions with GAGs, which are abundant on cell surfaces and in the ECM. These interactions stabilize FGF-2 and facilitate its dimerization with FGF receptors (FGFRs), a requirement for effective signal transduction. , Thus, therapeutic candidates targeting FGF-2 must be evaluated not only for direct binding but also for their ability to modulate or disrupt GAG-mediated interactions. Therefore, we performed competition assays in which native HS was immobilized on the sensor surface. Solutions containing a fixed concentration of FGF-2 (50 nM) were premixed with varying concentrations of HS glycomimetics, functioning as inhibitors in this context, (M1, D1, D2, D3, and T1) and also with the heparin hexasaccharide (H1) (GlcNS6S-GlcA-GlcNS3S6S-IdoA2S-GlcNS6S-GlcA), a well-studied HS glycomimetic in the literature, as a positive control (Figure B). […] The progressive decrease in signal intensity with increasing inhibitor concentration directly reflects competition with immobilized HS for FGF-2 binding.
# [6] = molecular target: T1, FGF-1; experiment: Far-UV CD spectroscopy and CD thermal denaturation; conditions: CD thermal denaturation 10–90 °C; protein with sugar, 1:3 molar ratio
# Excerpt: (§2) To select a lead compound, we complemented the affinity data with a series of studies evaluating the structural and functional implications of protein-HS glycomimetic interactions. We assessed the therapeutic safety profile of our HS glycomimetics. We also employed circular dichroism (CD) spectroscopy to assess secondary structural changes in protein conformation upon binding to native HS and HS glycomimetics. Since native HS alone produces only a minimal signal, it was ensured that its contribution would not interfere with protein-sugar complex spectra. Therefore, only the far-UV CD spectra of bare proteins and their sugar complexes were recorded. […] Upon incubation with sugars (1:3 molar ratio), significant spectral changes were observed, indicating sugar-induced alterations in secondary structure (Figure A).
# (§3) We also evaluated the thermal stability of the proteins and their sugar complexes by CD-based thermal denaturation experiments. The spectra were recorded across a temperature range of 10–90 °C (Figure B). For all proteins except AT-III, the unfolding profiles were analyzed to determine the melting temperature (T m), representing the midpoint of the transition from the folded to the unfolded state, an indicator of structural integrity and resistance to thermal denaturation. The calculated values are compiled in Table .
# [7] = molecular target: T2, FGF-2; experiment: Far-UV CD spectroscopy and CD thermal denaturation; conditions: CD thermal denaturation 10–90 °C; protein with sugar, 1:3 molar ratio
# Excerpt: as §2, §3
# [8] = system: citrated pooled rat plasma; experiment: Activated partial thromboplastin time (aPTT) assay
# Excerpt: To complement these findings, we performed an activated partial thromboplastin time (aPTT) assay in citrated pooled rat plasma to assess the overall impact of the compounds on the intrinsic coagulation pathway. This global clotting assay measures the time required for fibrin formation and is sensitive to anticoagulant effects. Figure F,G compare the effects of UFH, heparan sulfate, Fondaparinux, and the synthetic glycomimetics when supplemented into citrated plasma. […] As expected, UFH produced a strong, concentration-dependent anticoagulant response, prolonging the mean clotting time to 271 s at the highest concentration tested, while heparan sulfate and Fondaparinux induced weaker but measurable effects (83 and 37 s, respectively). […] The results further confirm that selective sulfation patterns can decouple GF recognition from anticoagulant function, an essential prerequisite for their translational application in regenerative medicine. […] These interactions are in line with nonspecific electrostatic binding, a feature of highly sulfated oligosaccharides known to engage different proteins via charge-based, rather than specific, biologically targeted interactions. Thus, to avoid potential off-target effects associated with highly sulfated analogues, we selected the disaccharide D2 for subsequent biological experiments.
# [9] = system: PC12 cells; experiment: NGF-mediated neurite outgrowth on sugar-coated substrates; assay type: cell-based, rat; conditions: PC12 cells on coated surface, NGF 50 ng/mL; control 108 μm
# Excerpt: We next examined the NGF-induced neuritogenic potential of the HS glycomimetics to determine whether they could potentiate neurotrophin-driven neuronal differentiation. To mimic the native role of HS proteoglycans in the ECM, which spatially sequester and present growth factors, we immobilized D2 and also native HS as a positive control onto culture substrates and evaluated its capacity to modulate neural maturation in two well-established neuronal cell models of different species origins, rat-derived PC12 cells and human-derived SH-SY5Y cells. These models represent distinct stages of neuronal differentiation and maturation, and the choice enabled us to compare cellular responses across species, thereby enhancing the translational relevance of our findings. PC12 cells respond to NGF by exiting the cell cycle and extending neurites, while SH-SY5Y cells serve as a model for later-stage maturation and neurite elongation. , […]
# In PC12 cells, which serve as a classical model for NGF-induced neuronal differentiation, the presence of both immobilized D2 and native HS coatings led to notable morphological changes relative to control conditions (Figure C). […] Although images used for quantification were selected from well-dispersed regions, we also observed instances of cell clustering in both control and D2 groups (Figure S6.1, Supporting Information). […]
# [10] = system: SH-SY5Y cells; experiment: NGF-mediated neuronal maturation on sugar-coated substrates, β-tubulin III fluorescence; assay type: cell-based, human; conditions: SH-SY5Y cells on coated surface, NGF 50 ng/mL; control 1.43
# Excerpt: We next examined the NGF-induced neuritogenic potential of the HS glycomimetics to determine whether they could potentiate neurotrophin-driven neuronal differentiation. To mimic the native role of HS proteoglycans in the ECM, which spatially sequester and present growth factors, we immobilized D2 and also native HS as a positive control onto culture substrates and evaluated its capacity to modulate neural maturation in two well-established neuronal cell models of different species origins, rat-derived PC12 cells and human-derived SH-SY5Y cells. These models represent distinct stages of neuronal differentiation and maturation, and the choice enabled us to compare cellular responses across species, thereby enhancing the translational relevance of our findings. PC12 cells respond to NGF by exiting the cell cycle and extending neurites, while SH-SY5Y cells serve as a model for later-stage maturation and neurite elongation. ,
# In this context, the immobilization of D2 onto culture substrates provided a means to investigate how its presentation as an ECM-like component influences neurotrophic responses, particularly in combination with NGF. In both cell lines, D2 and native HS were applied to the substrate prior to seeding, thereby mimicking its natural role as a structural component of the ECM. […]
# [11] = system: rat dissociated hippocampal neurons; experiment: Neurite morphometry in dissociated hippocampal neurons; assay type: cell-based; conditions: 24 h treatment, 1 day in vitro, D2 1 μM, FGF-2 40 ng/mL, mean ± SEM
# Procedure: In the pursuit of this, we used rat dissociated hippocampal neurons as an in vitro model system. We assessed the impact of HS glycomimetics on neuronal morphology, using immunofluorescence imaging and quantitative morphometric analysis, and on synaptic functionality through electrophysiological monitoring of spontaneous neuronal activity.
# During the first day of differentiation in vitro (Table S7.1 in SI), neurons were treated for 24 h with either control medium, glycomimetic D2 (1 μM), FGF-2 (40 ng/mL) alone, or a combination of FGF-2 and D2 (40 ng/mL and 1 μM, respectively). After treatments, cultures were fixed and immuno-labeled with antibodies against the neuronal marker β-Tubulin III to study cell morphology. […] Quantitative analysis further corroborated these observations (Figure B–C).
# T1 sequence (P05230 whole entry, species assumed): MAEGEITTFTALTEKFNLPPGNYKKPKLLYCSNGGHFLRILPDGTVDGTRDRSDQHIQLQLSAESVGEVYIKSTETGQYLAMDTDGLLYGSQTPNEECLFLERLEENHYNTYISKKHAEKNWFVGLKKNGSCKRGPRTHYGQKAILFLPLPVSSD
# T2 sequence (P09038 134-288 limits assumed, species assumed): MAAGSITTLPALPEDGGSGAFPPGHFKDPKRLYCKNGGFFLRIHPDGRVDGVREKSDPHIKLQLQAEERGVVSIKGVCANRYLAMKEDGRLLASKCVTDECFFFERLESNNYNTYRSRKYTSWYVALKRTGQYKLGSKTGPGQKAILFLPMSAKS
# Sequence of NGF (P01138 122-241): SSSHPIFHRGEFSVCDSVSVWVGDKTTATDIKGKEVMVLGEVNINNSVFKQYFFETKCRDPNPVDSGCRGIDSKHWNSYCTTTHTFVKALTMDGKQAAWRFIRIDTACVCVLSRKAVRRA
# Sequence of AT-III (P01008 33-464): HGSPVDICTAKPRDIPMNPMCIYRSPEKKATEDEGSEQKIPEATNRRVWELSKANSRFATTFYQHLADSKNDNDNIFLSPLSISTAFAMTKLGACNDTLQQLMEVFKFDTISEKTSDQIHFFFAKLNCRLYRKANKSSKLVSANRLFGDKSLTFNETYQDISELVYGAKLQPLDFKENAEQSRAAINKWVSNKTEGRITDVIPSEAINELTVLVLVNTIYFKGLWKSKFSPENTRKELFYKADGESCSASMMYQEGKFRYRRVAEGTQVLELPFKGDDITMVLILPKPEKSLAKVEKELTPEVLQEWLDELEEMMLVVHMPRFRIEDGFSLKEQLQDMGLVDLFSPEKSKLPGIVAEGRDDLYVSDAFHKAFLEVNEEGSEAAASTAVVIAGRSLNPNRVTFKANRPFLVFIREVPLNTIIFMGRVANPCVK
smiles,measurement,setting,value
"CC(=O)N[C@H]1[C@@H](OCCN)O[C@H](COS(=O)(=O)O)[C@@H](O[C@@H]2O[C@@H](C(=O)O)[C@@H](OS(=O)(=O)O)[C@H](O)[C@H]2OS(=O)(=O)O)[C@@H]1O [D2, IdoA2S4S-GlcNAc6S]",binding to AT-III,[1],no measurable binding
same,Kd,[2],0.78 µM
same,Kd,[3],0.67 µM
same,Kd,"[4]; read-out: KD for NGF, two-site binding model, first value",2.6 µM
same,Kd,"[4]; read-out: KD for NGF, two-site binding model, second value",468 µM
same,"competition with immobilized native HS for FGF-2 binding, signal intensity",[5]; FGF-2 50 nM premixed with varying concentrations,dose-dependent reduction in signal intensity
same,IC50,"[5]; FGF-2 50 nM, fixed association time t = 240 s, read-out: Apparent IC50(t), competition with immobilized native HS for FGF-2 binding",17.9 µM
same,FGF-1 Sample Tm,[6],45.0 °C and 45.0 ± 0.4 °C
same,FGF-2 Sample Tm,[7],52.4 °C and 52.4 ± 1.2 °C
same,aPTT mean clotting time,"[8]; citrated pooled rat plasma, highest concentration tested, control 22 s",24 s
same,anticoagulant activity,[8]; conclusion from aPTT and chromogenic assays,without any anticoagulant activity
same,total neurite outgrowth per image (average sum of neurite length),[9],541 μm
same,mean normalized β-tubulin III fluorescence intensity,[10],2.15
same,number of neurites emerging from the cell body,[11]; control 3.6 ± 0.22,3.8 ± 0.23 neurites per neuron
same,length of the longest neurite,[11]; control 38 ± 2,43 ± 3 μm
